Source: the NIST ThermoML archive (doi:10.1016/j.fluid.2008.03.012)
± gives the expanded uncertainty stated by the source.

Assay: excess molar enthalpy (molar enthalpy of mixing); xn = mol fraction of the nth substance listed
Conditions: Liquid, Flow calorimetry

**Q.** With CCOC(=O)CC(C)=O [ethyl 3-oxobutanoate] + CCCO as the compound, how does the excess molar enthalpy (298.15 K, 100 kPa, x1 = 0.1001) read?
**A.** 0.208 ± 0.00454 kcal/mol

**Q.** And the excess molar enthalpy (298.15 K, 100 kPa, x1 = 0.1998)?
**A.** 0.324 ± 0.00693 kcal/mol

**Q.** What about the excess molar enthalpy (298.15 K, 100 kPa, x1 = 0.3003) of the same compound?
**A.** 0.396 ± 0.0086 kcal/mol

**Q.** What about the excess molar enthalpy (298.15 K, 100 kPa, x1 = 0.3502) of the same compound?
**A.** 0.42 ± 0.00908 kcal/mol

**Q.** What about the excess molar enthalpy (298.15 K, 100 kPa, x1 = 0.3994) of the same compound?
**A.** 0.436 ± 0.00932 kcal/mol

**Q.** And the excess molar enthalpy (298.15 K, 100 kPa, x1 = 0.4501)?
**A.** 0.446 ± 0.00956 kcal/mol

**Q.** What about the excess molar enthalpy (298.15 K, 100 kPa, x1 = 0.4997) of the same compound?
**A.** 0.45 ± 0.00956 kcal/mol

**Q.** What about the excess molar enthalpy (298.15 K, 100 kPa, x1 = 0.5505) of the same compound?
**A.** 0.446 ± 0.00956 kcal/mol

**Q.** And the excess molar enthalpy (298.15 K, 100 kPa, x1 = 0.5997)?
**A.** 0.435 ± 0.00932 kcal/mol

**Q.** What about the excess molar enthalpy (298.15 K, 100 kPa, x1 = 0.6497) of the same compound?
**A.** 0.417 ± 0.00884 kcal/mol

**Q.** And the excess molar enthalpy (298.15 K, 100 kPa, x1 = 0.7007)?
**A.** 0.39 ± 0.00837 kcal/mol

**Q.** And the excess molar enthalpy (298.15 K, 100 kPa, x1 = 0.7996)?
**A.** 0.307 ± 0.00669 kcal/mol

**Q.** And the excess molar enthalpy (298.15 K, 100 kPa, x1 = 0.9004)?
**A.** 0.175 ± 0.00406 kcal/mol

**Q.** What about the excess molar enthalpy (298.15 K, 10000 kPa, x1 = 0.1003) of the same compound?
**A.** 0.204 ± 0.00454 kcal/mol

**Q.** And the excess molar enthalpy (298.15 K, 10000 kPa, x1 = 0.2001)?
**A.** 0.318 ± 0.00693 kcal/mol

**Q.** What about the excess molar enthalpy (298.15 K, 10000 kPa, x1 = 0.3007) of the same compound?
**A.** 0.389 ± 0.00837 kcal/mol

**Q.** What about the excess molar enthalpy (298.15 K, 10000 kPa, x1 = 0.3506) of the same compound?
**A.** 0.412 ± 0.00884 kcal/mol

**Q.** And the excess molar enthalpy (298.15 K, 10000 kPa, x1 = 0.3998)?
**A.** 0.427 ± 0.00908 kcal/mol

**Q.** And the excess molar enthalpy (298.15 K, 10000 kPa, x1 = 0.4505)?
**A.** 0.436 ± 0.00932 kcal/mol

**Q.** And the excess molar enthalpy (298.15 K, 10000 kPa, x1 = 0.5001)?
**A.** 0.439 ± 0.00932 kcal/mol

**Q.** What about the excess molar enthalpy (298.15 K, 10000 kPa, x1 = 0.5509) of the same compound?
**A.** 0.435 ± 0.00932 kcal/mol

**Q.** What about the excess molar enthalpy (298.15 K, 10000 kPa, x1 = 0.6) of the same compound?
**A.** 0.425 ± 0.00908 kcal/mol

**Q.** What about the excess molar enthalpy (298.15 K, 10000 kPa, x1 = 0.6501) of the same compound?
**A.** 0.407 ± 0.0086 kcal/mol

**Q.** What about the excess molar enthalpy (298.15 K, 10000 kPa, x1 = 0.701) of the same compound?
**A.** 0.38 ± 0.00813 kcal/mol

**Q.** What about the excess molar enthalpy (298.15 K, 10000 kPa, x1 = 0.7999) of the same compound?
**A.** 0.3 ± 0.00645 kcal/mol

**Q.** And the excess molar enthalpy (298.15 K, 10000 kPa, x1 = 0.9005)?
**A.** 0.17 ± 0.00382 kcal/mol

**Q.** What about the excess molar enthalpy (313.15 K, 100 kPa, x1 = 0.1001) of the same compound?
**A.** 0.237 ± 0.00526 kcal/mol

**Q.** What about the excess molar enthalpy (313.15 K, 100 kPa, x1 = 0.1998) of the same compound?
**A.** 0.378 ± 0.00813 kcal/mol

**Q.** What about the excess molar enthalpy (313.15 K, 100 kPa, x1 = 0.3003) of the same compound?
**A.** 0.464 ± 0.01 kcal/mol

**Q.** And the excess molar enthalpy (313.15 K, 100 kPa, x1 = 0.3502)?
**A.** 0.493 ± 0.0105 kcal/mol

**Q.** What about the excess molar enthalpy (313.15 K, 100 kPa, x1 = 0.3994) of the same compound?
**A.** 0.512 ± 0.011 kcal/mol

**Q.** And the excess molar enthalpy (313.15 K, 100 kPa, x1 = 0.4501)?
**A.** 0.522 ± 0.0112 kcal/mol

**Q.** And the excess molar enthalpy (313.15 K, 100 kPa, x1 = 0.4997)?
**A.** 0.524 ± 0.0112 kcal/mol

**Q.** What about the excess molar enthalpy (313.15 K, 100 kPa, x1 = 0.5505) of the same compound?
**A.** 0.517 ± 0.011 kcal/mol

**Q.** And the excess molar enthalpy (313.15 K, 100 kPa, x1 = 0.5997)?
**A.** 0.501 ± 0.0108 kcal/mol

**Q.** What about the excess molar enthalpy (313.15 K, 100 kPa, x1 = 0.6497) of the same compound?
**A.** 0.475 ± 0.0103 kcal/mol

**Q.** What about the excess molar enthalpy (313.15 K, 100 kPa, x1 = 0.7007) of the same compound?
**A.** 0.441 ± 0.00956 kcal/mol

**Q.** What about the excess molar enthalpy (313.15 K, 100 kPa, x1 = 0.7996) of the same compound?
**A.** 0.341 ± 0.00741 kcal/mol

**Q.** What about the excess molar enthalpy (313.15 K, 100 kPa, x1 = 0.9004) of the same compound?
**A.** 0.187 ± 0.0043 kcal/mol

**Q.** And the excess molar enthalpy (313.15 K, 10000 kPa, x1 = 0.1003)?
**A.** 0.229 ± 0.00502 kcal/mol

**Q.** And the excess molar enthalpy (313.15 K, 10000 kPa, x1 = 0.2001)?
**A.** 0.364 ± 0.00789 kcal/mol

**Q.** What about the excess molar enthalpy (313.15 K, 10000 kPa, x1 = 0.3007) of the same compound?
**A.** 0.45 ± 0.00956 kcal/mol

**Q.** What about the excess molar enthalpy (313.15 K, 10000 kPa, x1 = 0.3506) of the same compound?
**A.** 0.474 ± 0.01 kcal/mol

**Q.** What about the excess molar enthalpy (313.15 K, 10000 kPa, x1 = 0.3998) of the same compound?
**A.** 0.492 ± 0.0105 kcal/mol

**Q.** What about the excess molar enthalpy (313.15 K, 10000 kPa, x1 = 0.4505) of the same compound?
**A.** 0.502 ± 0.0108 kcal/mol

**Q.** And the excess molar enthalpy (313.15 K, 10000 kPa, x1 = 0.5001)?
**A.** 0.503 ± 0.0108 kcal/mol

**Q.** What about the excess molar enthalpy (313.15 K, 10000 kPa, x1 = 0.5509) of the same compound?
**A.** 0.498 ± 0.0108 kcal/mol

**Q.** And the excess molar enthalpy (313.15 K, 10000 kPa, x1 = 0.6)?
**A.** 0.483 ± 0.0103 kcal/mol

**Q.** What about the excess molar enthalpy (313.15 K, 10000 kPa, x1 = 0.6501) of the same compound?
**A.** 0.457 ± 0.0098 kcal/mol

**Q.** What about the excess molar enthalpy (313.15 K, 10000 kPa, x1 = 0.701) of the same compound?
**A.** 0.421 ± 0.00908 kcal/mol

**Q.** What about the excess molar enthalpy (313.15 K, 10000 kPa, x1 = 0.7999) of the same compound?
**A.** 0.322 ± 0.00693 kcal/mol

**Q.** And the excess molar enthalpy (313.15 K, 10000 kPa, x1 = 0.9005)?
**A.** 0.179 ± 0.00406 kcal/mol

**Q.** What about the excess molar enthalpy (328.15 K, 100 kPa, x1 = 0.1001) of the same compound?
**A.** 0.256 ± 0.00574 kcal/mol

**Q.** And the excess molar enthalpy (328.15 K, 100 kPa, x1 = 0.1998)?
**A.** 0.414 ± 0.00884 kcal/mol

**Q.** What about the excess molar enthalpy (328.15 K, 100 kPa, x1 = 0.3003) of the same compound?
**A.** 0.509 ± 0.011 kcal/mol

**Q.** And the excess molar enthalpy (328.15 K, 100 kPa, x1 = 0.3502)?
**A.** 0.539 ± 0.0115 kcal/mol

**Q.** And the excess molar enthalpy (328.15 K, 100 kPa, x1 = 0.3994)?
**A.** 0.558 ± 0.012 kcal/mol

**Q.** And the excess molar enthalpy (328.15 K, 100 kPa, x1 = 0.4501)?
**A.** 0.565 ± 0.012 kcal/mol

**Q.** What about the excess molar enthalpy (328.15 K, 100 kPa, x1 = 0.4997) of the same compound?
**A.** 0.564 ± 0.012 kcal/mol

**Q.** What about the excess molar enthalpy (328.15 K, 100 kPa, x1 = 0.5505) of the same compound?
**A.** 0.553 ± 0.0117 kcal/mol

**Q.** What about the excess molar enthalpy (328.15 K, 100 kPa, x1 = 0.5997) of the same compound?
**A.** 0.532 ± 0.0115 kcal/mol

**Q.** What about the excess molar enthalpy (328.15 K, 100 kPa, x1 = 0.6497) of the same compound?
**A.** 0.504 ± 0.0108 kcal/mol

**Q.** What about the excess molar enthalpy (328.15 K, 100 kPa, x1 = 0.7007) of the same compound?
**A.** 0.462 ± 0.01 kcal/mol

**Q.** And the excess molar enthalpy (328.15 K, 100 kPa, x1 = 0.7996)?
**A.** 0.351 ± 0.00765 kcal/mol

**Q.** And the excess molar enthalpy (328.15 K, 100 kPa, x1 = 0.9004)?
**A.** 0.193 ± 0.0043 kcal/mol

**Q.** What about the excess molar enthalpy (328.15 K, 10000 kPa, x1 = 0.1003) of the same compound?
**A.** 0.254 ± 0.00574 kcal/mol

**Q.** And the excess molar enthalpy (328.15 K, 10000 kPa, x1 = 0.2001)?
**A.** 0.407 ± 0.00884 kcal/mol

**Q.** What about the excess molar enthalpy (328.15 K, 10000 kPa, x1 = 0.3007) of the same compound?
**A.** 0.503 ± 0.0108 kcal/mol

**Q.** What about the excess molar enthalpy (328.15 K, 10000 kPa, x1 = 0.3506) of the same compound?
**A.** 0.533 ± 0.0115 kcal/mol

**Q.** What about the excess molar enthalpy (328.15 K, 10000 kPa, x1 = 0.3998) of the same compound?
**A.** 0.552 ± 0.0117 kcal/mol

**Q.** What about the excess molar enthalpy (328.15 K, 10000 kPa, x1 = 0.4505) of the same compound?
**A.** 0.563 ± 0.012 kcal/mol

**Q.** What about the excess molar enthalpy (328.15 K, 10000 kPa, x1 = 0.5001) of the same compound?
**A.** 0.563 ± 0.012 kcal/mol

**Q.** And the excess molar enthalpy (328.15 K, 10000 kPa, x1 = 0.5509)?
**A.** 0.552 ± 0.0117 kcal/mol

**Q.** What about the excess molar enthalpy (328.15 K, 10000 kPa, x1 = 0.6) of the same compound?
**A.** 0.53 ± 0.0112 kcal/mol

**Q.** And the excess molar enthalpy (328.15 K, 10000 kPa, x1 = 0.6501)?
**A.** 0.502 ± 0.0108 kcal/mol

**Q.** What about the excess molar enthalpy (328.15 K, 10000 kPa, x1 = 0.701) of the same compound?
**A.** 0.461 ± 0.0098 kcal/mol

**Q.** And the excess molar enthalpy (328.15 K, 10000 kPa, x1 = 0.7999)?
**A.** 0.35 ± 0.00765 kcal/mol

**Q.** And the excess molar enthalpy (328.15 K, 10000 kPa, x1 = 0.9005)?
**A.** 0.19 ± 0.0043 kcal/mol
